Experimental data reported in US9969752B2, “Inhibitors of HIF prolyl hydroxylase” (MERCK SHARP & DOHME CORP., priority 2014, dated 2018).

biological target: T1, Human HIF-PHD2 (Homo sapiens, UniProt Q9GZT9); experiment: Inhibition of the hydroxylation of a HIF peptide by PHD2 (time resolved fluorescence, 384-well); format: biochemical; conditions: FLAG-tagged full length PHD2; 0.2 μM 2-oxoglutarate, 0.5 μM HIF-1α peptide; 45 minutes at room temperature; read-out: Human HIF-PHD2 IC50
T1 construct: FLAG-tagged full length PHD2 expressed in and purified from baculovirus-infected Sf9 cells; FLAG; made in house; host or cells: baculovirus-infected Sf9 cells
T1 sequence (Q9GZT9 whole entry): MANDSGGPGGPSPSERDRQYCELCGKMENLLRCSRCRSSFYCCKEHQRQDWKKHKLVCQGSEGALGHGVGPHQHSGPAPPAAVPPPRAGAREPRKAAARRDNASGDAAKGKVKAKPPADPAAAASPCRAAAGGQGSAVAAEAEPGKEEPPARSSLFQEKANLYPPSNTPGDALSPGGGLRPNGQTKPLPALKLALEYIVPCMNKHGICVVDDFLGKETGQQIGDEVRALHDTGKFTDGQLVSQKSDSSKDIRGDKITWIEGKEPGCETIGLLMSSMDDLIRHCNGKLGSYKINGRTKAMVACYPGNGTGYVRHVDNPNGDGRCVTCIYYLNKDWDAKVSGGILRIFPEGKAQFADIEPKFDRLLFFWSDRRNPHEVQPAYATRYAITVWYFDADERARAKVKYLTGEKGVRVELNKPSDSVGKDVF

IC50 | SMILES
3.6 nM | O=C(O)CNC(=O)c1c(O)c2ccc(-c3cccnc3)c3c2n(c1=O)CCO3 [Example 153, N-[(7-Hydroxy-5-oxo-10-pyridin-3-yl-2,3-dihydro-5H-[1,4]oxazino[2,3,4-ij]quinolin-6-yl)carbonyl]glycine]
25 nM | O=C(O)CNC(=O)c1c(O)c2cccc3c2n(c1=O)C(c1ccc(Cl)cc1)CO3 (stereo not shown) [Example 157, 2-(7-Hydroxy-5-oxo-3-(4-chlorophenyl)-3,5-dihydro-2H-[1,4]oxazino[2,3,4-ij]quinoline-6-carboxamido)acetic acid]
5.4 nM | N#Cc1ccc2c(O)c(C(=O)NCC(=O)O)c(=O)n3c2c1OCC3c1ccc(C(F)(F)F)cc1 (stereo not shown) [Example 178, Ammonium 2-(10-cyano-7-hydroxy-5-oxo-3-(4-(trifluoromethyl)phenyl)-3,5-dihydro-2H-[1,4]oxazino[2,3,4-ij]quinoline-6-carboxamido)acetate]

same assay, conditions: FLAG-tagged full length PHD2; 0.2 μM 2-oxoglutarate, 0.5 μM HIF-1α peptide; 45 minutes at room temperature; read-out: MS m/z (M + 1)+ and human HIF-PHD2 IC50

SMILES | IC50
COc1ncccc1-c1ccc(C2COc3cccc4c(O)c(C(=O)NCC(=O)O)c(=O)n2c34)cc1 (stereo not shown) [Example 147, N-({7-hydroxy-3-[4-(2-methoxypyridin-3-yl)phenyl]-5-oxo-2,3-dihydro-5H-[1,4]oxazino[2,3,4-ij]quinolin-6-yl}carbonyl)glycine] | 18 nM
Nc1ccc(-c2ccc(C3COc4cccc5c(O)c(C(=O)NCC(=O)O)c(=O)n3c45)cc2)cn1 (stereo not shown) [Example 149, N-({3-[4-(6-aminopyridin-3-yl)phenyl]-7-hydroxy-5-oxo-2,3-dihydro-5H-[1,4]oxazino[2,3,4-ij]quinolin-6-yl}carbonyl)glycine] | 13 nM
N#Cc1cccc(-c2ccc(C3COc4cccc5c(O)c(C(=O)NCC(=O)O)c(=O)n3c45)cc2)c1 (stereo not shown) [Example 150, N-{[3-(3′-cyanobiphenyl-4-yl)-7-hydroxy-5-oxo-2,3-dihydro-5H-[1,4]oxazino[2,3,4-ij]quinolin-6-yl]carbonyl}glycine] | 13 nM
O=C(O)CNC(=O)c1c(O)c2cccc3c2n(c1=O)C(c1ccc(-c2ccn[nH]2)cc1)CO3 (stereo not shown) [Example 152, 2-(3-(4-(1H-pyrazol-5-yl)phenyl)-7-hydroxy-5-oxo-3,5-dihydro-2H-[1,4]oxazino[2,3,4-ij]quinoline-6-carboxamido)acetic acid] | 11 nM
Nc1ccc(-c2ccc3c(O)c(C(=O)NCC(=O)O)c(=O)n4c3c2OCC4)cn1 [Example 156, N-{[10-(6-aminopyridin-3-yl)-7-hydroxy-5-oxo-2,3-dihydro-5H-[1,4]oxazino[2,3,4-ij]quinolin-6-yl]carbonyl}glycine] | 8.1 nM
O=C(O)CNC(=O)c1c(O)c2cc(F)cc3c2n(c1=O)C(c1ccc(C(F)(F)F)cc1)CO3 (stereo not shown) [Example 158, 2-(9-fluoro-7-hydroxy-5-oxo-3-(4-(trifluoromethyl)phenyl)-3,5-dihydro-2H-[1,4]oxazino[2,3,4-ij]quinoline-6-carboxamido)acetic acid] | 16 nM
O=C(O)CNC(=O)c1c(O)c2ccc(Cl)c3c2n(c1=O)C(c1ccc(C(F)(F)F)cc1)CO3 (stereo not shown) [Example 165, 2-(10-chloro-7-hydroxy-5-oxo-3-(4-(trifluoromethyl)phenyl)-3,5-dihydro-2H-[1,4]oxazino[2,3,4-ij]quinoline-6-carboxamido)acetic acid] | 19 nM
O=C(O)CNC(=O)c1c(O)c2cc(Cl)cc3c2n(c1=O)C(c1ccc(C(F)(F)F)cc1)CO3 (stereo not shown) [Example 166, 2-(9-chloro-7-hydroxy-5-oxo-3-(4-(trifluoromethyl)phenyl)-3,5-dihydro-2H-[1,4]oxazino[2,3,4-ij]quinoline-6-carboxamido)acetic acid] | 16 nM
O=C(O)CNC(=O)c1c(O)c2cccc3c2n(c1=O)C(c1cccc(C(F)(F)F)c1)CO3 (stereo not shown) [Example 167] | 74 nM
O=C(O)CNC(=O)c1c(O)c2ccc(Br)c3c2n(c1=O)C(c1cscn1)CO3 (stereo not shown) [Example 170, 2-(10-bromo-7-hydroxy-5-oxo-3-(thiazol-4-yl)-3,5-dihydro-2H-[1,4]oxazino[2,3,4-ij]quinoline-6-carboxamido)acetic acid] | 5 nM
O=C(O)CNC(=O)c1c(O)c2c(F)ccc3c2n(c1=O)C(c1cncs1)CO3 (stereo not shown) [Example 172, 2-(8-fluoro-7-hydroxy-5-oxo-3-(thiazol-5-yl)-3,5-dihydro-2H-[1,4]oxazino[2,3,4-ij]quinoline-6-carboxamido)acetic acid] | 7.3 nM
O=C(O)CNC(=O)c1c(O)c2cccc3c2n(c1=O)C(c1cnco1)CO3 (stereo not shown) [Example 173, 2-(7-hydroxy-3-(oxazol-5-yl)-5-oxo-3,5-dihydro-2H-[1,4]oxazino[2,3,4-ij]quinoline-6-carboxamido)acetic acid] | 14 nM
O=C(O)CNC(=O)c1c(O)c2ccc(F)c3c2n(c1=O)C(c1cncs1)CO3 (stereo not shown) [Example 174, 2-(10-fluoro-7-hydroxy-5-oxo-3-(thiazol-5-yl)-3,5-dihydro-2H-[1,4]oxazino[2,3,4-ij]quinoline-6-carboxamido)acetic acid] | 3.8 nM
O=C(O)CNC(=O)c1c(O)c2c(Br)ccc3c2n(c1=O)C(c1cncs1)CO3 (stereo not shown) [Example 176, 2-(8-bromo-7-hydroxy-5-oxo-3-(thiazol-5-yl)-3,5-dihydro-2H-[1,4]oxazino[2,3,4-ij]quinoline-6-carboxamido)acetic acid] | 7.7 nM
N#Cc1cc2c3c(c1)c(O)c(C(=O)NCC(=O)O)c(=O)n3C(c1ccc(C(F)(F)F)cc1)CO2 (stereo not shown) [Example 179, ammonium 2-(9-cyano-7-hydroxy-5-oxo-3-(4-(trifluoromethyl)phenyl)-3,5-dihydro-2H-[1,4]oxazino[2,3,4-ij]quinoline-6-carboxamido)acetate] | 4.6 nM

The next lines start with the values.

IC50 | SMILES
5.7 nM | O=C(O)CNC(=O)c1c(O)c2cccc3c2n(c1=O)C(c1ccc(-c2ccncc2)cc1)CO3 (stereo not shown) [Example 148, N-{[7-hydroxy-5-oxo-3-(4-pyridin-4-ylphenyl)-2,3-dihydro-5H-[1,4]oxazino[2,3,4-ij]quinolin-6-yl]carbonyl}glycine]
9.2 nM | O=C(O)CNC(=O)c1c(O)c2cccc3c2n(c1=O)C(c1ccc(-c2cccnc2)cc1)CO3 (stereo not shown) [Example 151, N-{[7-hydroxy-5-oxo-3-(4-pyridin-3-ylphenyl)-2,3-dihydro-5H-[1,4]oxazino[2,3,4-ij]quinolin-6-yl]carbonyl}glycine]
3.7 nM | COc1ccc(-c2ccc3c(O)c(C(=O)NCC(=O)O)c(=O)n4c3c2OCC4)cn1 [Example 154, N-{[7-hydroxy-10-(6-methoxypyridin-3-yl)-5-oxo-2,3-dihydro-5H-[1,4]oxazino[2,3,4-ij]quinolin-6-yl]carbonyl}glycine]
3.3 nM | Cc1noc(C)c1-c1ccc2c(O)c(C(=O)NCC(=O)O)c(=O)n3c2c1OCC3 [Example 155, N-{[10-(3,5-dimethylisoxazol-4-yl)-7-hydroxy-5-oxo-2,3-dihydro-5H-[1,4]oxazino[2,3,4-ij]quinolin-6-yl]carbonyl}glycine]
47 nM | O=C(O)CNC(=O)c1c(O)c2cc(Br)cc3c2n(c1=O)C(c1ccc(C(F)(F)F)cc1)CO3 (stereo not shown) [Example 159, 2-(9-bromo-7-hydroxy-5-oxo-3-(4-(trifluoromethyl)phenyl)-3,5-dihydro-2H-[1,4]oxazino[2,3,4-ij]quinoline-6-carboxamido)acetic acid]
16 nM | O=C(O)CNC(=O)c1c(O)c2ccc(Br)c3c2n(c1=O)C(c1ccc(C(F)(F)F)cc1)CO3 (stereo not shown) [Example 161, 2-(10-bromo-7-hydroxy-5-oxo-3-(4-(trifluoromethyl)phenyl)-3,5-dihydro-2H-[1,4]oxazino[2,3,4-ij]quinoline-6-carboxamido)acetic acid]
15 nM | O=C(O)CNC(=O)c1c(O)c2c(F)ccc3c2n(c1=O)C(c1ccc(C(F)(F)F)cc1)CO3 (stereo not shown) [Example 162, 2-(8-fluoro-7-hydroxy-5-oxo-3-(4-(trifluoromethyl)phenyl)-3,5-dihydro-2H-[1,4]oxazino[2,3,4-ij]quinoline-6-carboxamido)acetic acid]
16 nM | O=C(O)CNC(=O)c1c(O)c2ccc(F)c3c2n(c1=O)C(c1ccc(C(F)(F)F)cc1)CO3 (stereo not shown) [Example 164, 2-(10-fluoro-7-hydroxy-5-oxo-3-(4-(trifluoroMethyl)phenyl)-3,5-dihydro-2H-[1,4]oxazino[2,3,4-ij]quinoline-6-carboxamido)acetic acid]
19 nM | O=C(O)CNC(=O)c1c(O)c2cccc3c2n(c1=O)C(c1nccs1)CO3 (stereo not shown) [Example 168, 2-(7-hydroxy-5-oxo-3-(thiazol-2-yl)-3,5-dihydro-2H-[1,4]oxazino[2,3,4-ij]quinoline-6-carboxamido)acetic acid]
16 nM | O=C(O)CNC(=O)c1c(O)c2c(Br)ccc3c2n(c1=O)C(c1ccc(C(F)(F)F)cc1)CO3 (stereo not shown) [Example 169, 2-(8-bromo-7-hydroxy-5-oxo-3-(4-(trifluoromethyl)phenyl)-3,5-dihydro-2H-[1,4]oxazino[2,3,4-ij]quinoline-6-carboxamido)acetic acid]
5.4 nM | O=C(O)CNC(=O)c1c(O)c2cccc3c2n(c1=O)C(c1cnc(C(F)(F)F)s1)CO3 (stereo not shown) [Example 171, 2-(7-hydroxy-5-oxo-3-(2-(trifluoromethyl)thiazol-5-yl)-3,5-dihydro-2H-[1,4]oxazino[2,3,4-ij]quinoline-6-carboxamido)acetic acid]
2.8 nM | O=C(O)CNC(=O)c1c(O)c2c(F)cc(F)c3c2n(c1=O)C(c1cncs1)CO3 (stereo not shown) [Example 175, 2-(8,10-difluoro-7-hydroxy-5-oxo-3-(thiazol-5-yl)-3,5-dihydro-2H-[1,4]oxazino[2,3,4-ij]quinoline-6-carboxamido)acetic acid]
5.4 nM | O=C(O)CNC(=O)c1c(O)c2ccc(Br)c3c2n(c1=O)C(c1cncs1)CO3 (stereo not shown) [Example 177, 2-(10-bromo-7-hydroxy-5-oxo-3-(thiazol-5-yl)-3,5-dihydro-2H-[1,4]oxazino[2,3,4-ij]quinoline-6-carboxamido)acetic acid]
